Measured values reported in US11352359B2, “PI3K protein kinase inhibitors” (Rhizen Pharmaceuticals SA, priority 2013, dated 2022).

Assays:
PI3Kδ = PI3Kδ (Homo sapiens, UniProt O00329); assay: Fluorescent determination of PI3Kinase enzyme activity (HTRF), PI3Kδ; type: biochemical; conditions: for inhibition at 0.1 µM: 100 nM (underlined values: 300 nM)
Text: (§1) Fluorescent Determination of PI3Kinase Enzyme Activity
(§2) Phosphoinositide 3 kinases (PI3K) belong to a class of Lipid kinases that play a critical role in the regulation of several key cellular processes. The PI3K are capable of phosphorylating the 3-hydroxy position of phosphoinositols thereby generating second messengers involved in downstream signalling events. The homogenous time resolved fluorescence (HTRF) assay allows detection of 3,4,5-triphosphate (PIP3) formed as a result of phosphorylation of phosphotidylinositol 4,5-biphosphate (PIP2) by PI3K isoforms such as α, […], γ or δ.
(§3) PI3K isoform activity for α, β, γ or δ is to be determined using a PI3K human HTRF™ Assay Kit (Millipore, Billerica, Mass.) with modifications. All incubations were carried out at room temperature. Briefly, 0.5 μl of 40× inhibitor (in 100% DMSO) or 100% DMSO were added to each well of a 384-well black plate (Greiner Bio-One, Monroe, N.C.) containing 14.5 μl 1× reaction buffer/PIP2 (10 mM MgCl2, 5 mM DTT, 1.38 μM PIP2) mix with or without enzyme and incubated for 10 min. After the initial incubation, 5 μl/well of 400 μM ATP was added and incubated for an additional 30 minutes. Reaction was terminated by adding 5 μl/well stop solution (Millipore, Billerica, Mass.). Five microliters of detection mix (Millipore, Billerica, Mass.) were then added to each well and was incubated for 6-18 h in the dark. HRTF ratio was measured on a microplate reader (BMG Labtech, Germany) at an excitation wavelength of 337 nm and emission wavelengths of 665 and 620 nm with an integration time of 400 μsec. Data was analyzed using Graphpad Prism (Graphpad software; San Diego Calif.) for IC50 determination).

PI3Kγ = PI3Kγ (Homo sapiens, UniProt P48736); assay: Fluorescent determination of PI3Kinase enzyme activity (HTRF), PI3Kγ; type: biochemical; conditions: for inhibition at 0.1 µM: 100 nM (underlined values: 300 nM)
Text: as §1, §2, §3

PI3Kα = PI3Kα (Homo sapiens, UniProt P42336); assay: Fluorescent determination of PI3Kinase enzyme activity (HTRF), PI3Kα; type: biochemical
Text: as §1, §2, §3

PI3Kβ = PI3Kβ (Homo sapiens, UniProt P42338); assay: Fluorescent determination of PI3Kinase enzyme activity (HTRF), PI3Kβ; type: biochemical
Text: as §1, §2, §3

PI3Kβ, sequence (P42338 whole entry): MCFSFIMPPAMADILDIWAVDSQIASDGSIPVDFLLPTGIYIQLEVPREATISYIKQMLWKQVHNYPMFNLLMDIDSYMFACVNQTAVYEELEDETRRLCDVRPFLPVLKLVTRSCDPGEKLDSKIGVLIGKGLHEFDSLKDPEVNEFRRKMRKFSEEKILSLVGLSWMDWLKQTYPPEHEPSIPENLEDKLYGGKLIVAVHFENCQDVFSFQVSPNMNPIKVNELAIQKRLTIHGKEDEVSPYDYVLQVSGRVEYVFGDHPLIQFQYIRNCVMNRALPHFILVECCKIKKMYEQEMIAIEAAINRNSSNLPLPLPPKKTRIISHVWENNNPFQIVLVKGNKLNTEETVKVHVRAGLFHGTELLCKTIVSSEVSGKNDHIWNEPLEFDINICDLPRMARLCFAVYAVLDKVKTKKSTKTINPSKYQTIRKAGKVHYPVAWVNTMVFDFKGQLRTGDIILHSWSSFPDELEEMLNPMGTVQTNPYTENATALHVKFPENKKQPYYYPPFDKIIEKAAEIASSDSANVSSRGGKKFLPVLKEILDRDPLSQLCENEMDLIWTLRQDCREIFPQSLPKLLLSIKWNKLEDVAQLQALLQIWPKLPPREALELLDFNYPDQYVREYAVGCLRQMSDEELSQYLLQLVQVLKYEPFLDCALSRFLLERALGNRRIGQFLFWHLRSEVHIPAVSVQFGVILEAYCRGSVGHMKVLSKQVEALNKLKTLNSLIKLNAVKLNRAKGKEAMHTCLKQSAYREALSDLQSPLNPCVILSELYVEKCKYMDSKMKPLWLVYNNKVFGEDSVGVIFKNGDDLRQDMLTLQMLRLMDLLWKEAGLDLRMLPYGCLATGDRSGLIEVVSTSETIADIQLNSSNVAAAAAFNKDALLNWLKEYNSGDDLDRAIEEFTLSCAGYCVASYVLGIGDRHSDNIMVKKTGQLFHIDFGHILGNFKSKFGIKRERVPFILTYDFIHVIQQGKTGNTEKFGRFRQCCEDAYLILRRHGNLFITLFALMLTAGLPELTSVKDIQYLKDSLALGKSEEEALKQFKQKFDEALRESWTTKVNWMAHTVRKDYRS
PI3Kβ, sequence (P27986 whole entry partner): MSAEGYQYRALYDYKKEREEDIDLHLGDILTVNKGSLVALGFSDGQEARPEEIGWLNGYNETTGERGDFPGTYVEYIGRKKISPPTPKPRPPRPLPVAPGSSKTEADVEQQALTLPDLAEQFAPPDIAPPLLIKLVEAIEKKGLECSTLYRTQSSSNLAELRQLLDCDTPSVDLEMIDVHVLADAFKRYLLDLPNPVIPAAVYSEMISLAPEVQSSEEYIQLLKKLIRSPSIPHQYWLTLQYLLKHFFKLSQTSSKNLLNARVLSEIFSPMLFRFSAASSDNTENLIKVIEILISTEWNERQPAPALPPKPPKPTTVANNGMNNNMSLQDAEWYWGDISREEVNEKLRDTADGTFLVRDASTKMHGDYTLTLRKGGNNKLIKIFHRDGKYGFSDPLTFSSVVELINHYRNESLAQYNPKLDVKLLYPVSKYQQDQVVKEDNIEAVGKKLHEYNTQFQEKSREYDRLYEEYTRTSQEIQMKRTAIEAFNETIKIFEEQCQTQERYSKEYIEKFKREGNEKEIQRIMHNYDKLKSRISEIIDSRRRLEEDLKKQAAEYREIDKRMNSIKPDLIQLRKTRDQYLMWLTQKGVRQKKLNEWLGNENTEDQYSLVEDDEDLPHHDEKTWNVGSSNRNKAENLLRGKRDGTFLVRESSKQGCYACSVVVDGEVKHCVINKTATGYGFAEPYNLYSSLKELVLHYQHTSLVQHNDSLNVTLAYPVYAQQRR
PI3Kα, sequence (P42336 whole entry): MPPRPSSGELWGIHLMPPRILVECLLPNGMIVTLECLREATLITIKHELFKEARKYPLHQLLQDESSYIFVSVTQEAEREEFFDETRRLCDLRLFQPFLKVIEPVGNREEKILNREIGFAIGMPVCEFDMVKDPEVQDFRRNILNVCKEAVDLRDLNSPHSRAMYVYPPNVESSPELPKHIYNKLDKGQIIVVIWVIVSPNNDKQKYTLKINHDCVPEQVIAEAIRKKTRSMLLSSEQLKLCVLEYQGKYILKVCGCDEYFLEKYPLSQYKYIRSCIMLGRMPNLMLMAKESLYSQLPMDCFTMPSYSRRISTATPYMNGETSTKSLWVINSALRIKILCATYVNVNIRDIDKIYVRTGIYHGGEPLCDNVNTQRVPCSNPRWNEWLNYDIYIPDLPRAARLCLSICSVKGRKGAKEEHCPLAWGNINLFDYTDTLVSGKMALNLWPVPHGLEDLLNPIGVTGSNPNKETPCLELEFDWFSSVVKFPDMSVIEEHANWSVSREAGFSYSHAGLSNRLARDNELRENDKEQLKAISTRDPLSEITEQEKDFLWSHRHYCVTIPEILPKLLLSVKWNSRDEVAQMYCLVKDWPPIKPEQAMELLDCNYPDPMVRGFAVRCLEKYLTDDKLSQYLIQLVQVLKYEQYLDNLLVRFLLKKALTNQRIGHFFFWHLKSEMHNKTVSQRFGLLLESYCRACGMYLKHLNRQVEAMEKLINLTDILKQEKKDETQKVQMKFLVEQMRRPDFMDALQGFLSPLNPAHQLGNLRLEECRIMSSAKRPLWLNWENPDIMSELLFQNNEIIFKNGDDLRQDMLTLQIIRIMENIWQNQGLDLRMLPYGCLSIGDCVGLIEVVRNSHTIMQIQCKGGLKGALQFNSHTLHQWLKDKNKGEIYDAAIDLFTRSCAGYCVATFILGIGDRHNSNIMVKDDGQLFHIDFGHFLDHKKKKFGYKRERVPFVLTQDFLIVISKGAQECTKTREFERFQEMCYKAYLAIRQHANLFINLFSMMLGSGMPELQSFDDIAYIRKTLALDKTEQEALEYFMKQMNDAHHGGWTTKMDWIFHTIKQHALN
PI3Kα, sequence (P27986 whole entry partner): as the sequence (P27986 whole entry partner) above
PI3Kγ, sequence (P48736 whole entry): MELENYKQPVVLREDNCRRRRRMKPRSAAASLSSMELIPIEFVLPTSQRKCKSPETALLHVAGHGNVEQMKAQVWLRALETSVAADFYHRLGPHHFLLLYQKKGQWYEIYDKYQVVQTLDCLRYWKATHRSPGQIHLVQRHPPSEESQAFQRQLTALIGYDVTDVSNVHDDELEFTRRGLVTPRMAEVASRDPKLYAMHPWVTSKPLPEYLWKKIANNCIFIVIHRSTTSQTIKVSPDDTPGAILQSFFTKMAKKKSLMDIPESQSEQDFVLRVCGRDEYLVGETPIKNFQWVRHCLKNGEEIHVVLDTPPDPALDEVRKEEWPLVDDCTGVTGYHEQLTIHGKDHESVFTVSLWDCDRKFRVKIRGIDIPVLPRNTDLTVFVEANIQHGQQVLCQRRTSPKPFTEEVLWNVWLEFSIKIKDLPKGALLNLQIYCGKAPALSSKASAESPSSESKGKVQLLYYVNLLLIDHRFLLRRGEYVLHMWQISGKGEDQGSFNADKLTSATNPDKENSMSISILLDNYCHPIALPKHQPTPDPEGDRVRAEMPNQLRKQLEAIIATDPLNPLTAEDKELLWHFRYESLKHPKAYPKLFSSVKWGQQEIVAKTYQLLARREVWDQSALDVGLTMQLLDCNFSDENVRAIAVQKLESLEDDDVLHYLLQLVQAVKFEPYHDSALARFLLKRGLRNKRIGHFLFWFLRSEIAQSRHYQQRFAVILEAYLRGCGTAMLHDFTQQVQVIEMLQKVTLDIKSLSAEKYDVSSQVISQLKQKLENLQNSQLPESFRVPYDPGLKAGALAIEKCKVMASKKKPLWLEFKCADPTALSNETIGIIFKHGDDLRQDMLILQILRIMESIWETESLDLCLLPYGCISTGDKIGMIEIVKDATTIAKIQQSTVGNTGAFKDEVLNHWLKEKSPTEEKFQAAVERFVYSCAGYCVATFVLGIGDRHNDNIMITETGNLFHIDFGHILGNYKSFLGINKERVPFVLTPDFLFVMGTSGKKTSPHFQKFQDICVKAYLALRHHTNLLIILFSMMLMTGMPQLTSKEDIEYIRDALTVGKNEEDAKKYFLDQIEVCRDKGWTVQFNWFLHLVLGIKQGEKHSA
PI3Kδ, sequence (O00329 whole entry): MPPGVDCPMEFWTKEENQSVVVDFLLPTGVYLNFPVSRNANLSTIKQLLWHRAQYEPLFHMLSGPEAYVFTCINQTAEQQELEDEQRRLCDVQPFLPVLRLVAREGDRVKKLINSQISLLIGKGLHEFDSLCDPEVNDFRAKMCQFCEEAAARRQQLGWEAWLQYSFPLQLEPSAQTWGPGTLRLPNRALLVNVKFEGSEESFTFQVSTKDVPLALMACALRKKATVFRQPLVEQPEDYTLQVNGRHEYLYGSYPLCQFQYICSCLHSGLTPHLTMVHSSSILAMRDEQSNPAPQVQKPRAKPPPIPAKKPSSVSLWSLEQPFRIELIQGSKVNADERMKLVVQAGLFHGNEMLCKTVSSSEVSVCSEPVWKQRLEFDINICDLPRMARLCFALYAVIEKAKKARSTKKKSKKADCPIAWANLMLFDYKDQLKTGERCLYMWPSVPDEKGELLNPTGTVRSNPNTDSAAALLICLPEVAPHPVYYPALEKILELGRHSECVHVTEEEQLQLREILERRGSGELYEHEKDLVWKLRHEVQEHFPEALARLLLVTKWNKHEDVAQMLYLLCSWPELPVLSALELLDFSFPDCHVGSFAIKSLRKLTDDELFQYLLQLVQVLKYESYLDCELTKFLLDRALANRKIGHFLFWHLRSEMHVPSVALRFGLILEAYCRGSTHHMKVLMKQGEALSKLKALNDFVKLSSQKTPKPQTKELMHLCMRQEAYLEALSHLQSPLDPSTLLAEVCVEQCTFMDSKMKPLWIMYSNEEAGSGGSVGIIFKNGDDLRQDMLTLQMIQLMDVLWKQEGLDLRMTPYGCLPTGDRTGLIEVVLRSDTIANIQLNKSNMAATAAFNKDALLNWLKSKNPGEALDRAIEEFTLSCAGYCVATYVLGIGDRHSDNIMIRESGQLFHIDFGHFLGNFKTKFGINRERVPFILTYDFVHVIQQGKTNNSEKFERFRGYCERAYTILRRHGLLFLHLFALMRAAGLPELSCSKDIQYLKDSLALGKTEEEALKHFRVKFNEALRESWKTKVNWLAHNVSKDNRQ
PI3Kδ, sequence (P27986 whole entry partner): as the sequence (P27986 whole entry partner) above

| SMILES | inhibition at 0.1 µM (PI3Kδ) [%] | inhibition at 0.1 µM (PI3Kγ) [%] | inhibition at 1 µM (PI3Kα) [%] | inhibition at 1 µM (PI3Kβ) [%] | melting point [°C] | IC50 (PI3Kδ) [nM] | IC50 (PI3Kγ) [nM] |
| --- | --- | --- | --- | --- | --- | --- | --- |
| CC(c1cc2cccc(Cl)c2c(=O)n1-c1ccccc1)n1nc(-c2ccc(O)c(F)c2)c2c(N)ncnc21 (stereo not drawn) [Example 14, 3-(1-(4-amino-3-(3-fluoro-4-hydroxyphenyl)-1H-pyrazolo[3,4-d]pyrimidin-1-yl)ethyl)-8-chloro-2-phenylisoquinolin-1(2H)-one] | 60 to 80 | 80 to 100 | 20 to 40 | 60 to 80 | 218 to 219 |  |  |
| C[C@H](c1cc2cccc(Cl)c2c(=O)n1-c1ccccc1)n1nc(-c2ccc(O)c(F)c2)c2c(N)ncnc21 [Example 14b, (−)-3-(1-(4-amino-3-(3-fluoro-4-hydroxyphenyl)-1H-pyrazolo[3,4-d]pyrimidin-1-yl)ethyl)-8-chloro-2-phenylisoquinolin-1(2H)-one] | 60 to 80 | 20 to 40 | 0 to 10 | 20 to 40 | 215 to 219 |  |  |
| CC(c1cc2cccc(F)c2c(=O)n1-c1ccccc1)n1nc(-c2ccc(O)c(F)c2)c2c(N)ncnc21 (stereo not drawn) [Example 15, 3-(1-(4-amino-3-(3-fluoro-4-hydroxyphenyl)-1H-pyrazolo[3,4-d]pyrimidin-1-yl)ethyl)-8-fluoro-2-phenylisoquinolin-1(2H)-one] | 40 to 60 | 40 to 60 | 0 to 10 | 20 to 40 | 228 to 229 |  |  |
| C[C@H](c1cc2cccc(F)c2c(=O)n1-c1ccccc1)n1nc(-c2ccc(O)c(F)c2)c2c(N)ncnc21 [Example 15b, (−)-3-(1-(4-amino-3-(3-fluoro-4-hydroxyphenyl)-1H-pyrazolo[3,4-d]pyrimidin-1-yl)ethyl)-8-fluoro-2-phenylisoquinolin-1(2H)-one] | 20 to 40 | 0 to 20 | 0 to 10 | 0 to 10 | 258 to 260 |  |  |
| CC(c1nc2cccc(F)c2c(=O)n1-c1ccccc1)n1nc(-c2ccc(O)c(F)c2)c2c(N)ncnc21 (stereo not drawn) [Example 16, 2-(1-(4-amino-3-(3-fluoro-4-hydroxyphenyl)-1H-pyrazolo[3,4-d]pyrimidin-1-yl)ethyl)-5-fluoro-3-phenylquinazolin-4(3H)-one] | 40 to 60 | 40 to 60 | 0 to 10 | 60 to 80 | 212 to 214 |  |  |
| C[C@H](c1nc2cccc(F)c2c(=O)n1-c1ccccc1)n1nc(-c2ccc(O)c(F)c2)c2c(N)ncnc21 [Example 16b, (−)-2-(1-(4-amino-3-(3-fluoro-4-hydroxyphenyl)-1H-pyrazolo[3,4-d]pyrimidin-1-yl)ethyl)-5-fluoro-3-phenylquinazolin-4(3H)-one] | 20 to 40 | 0 to 20 | 0 to 10 | 0 to 10 | 269 to 271 |  |  |
| C[C@H](c1cc2cccc(Cl)c2c(=O)n1-c1ccccc1)n1nc(-c2ccc(OC(F)F)c(F)c2)c2c(N)ncnc21 [Example 17b, (−)-3-(1-(4-amino-3-(4-(difluoromethoxy)-3-fluorophenyl)-1H-pyrazolo[3,4-d]pyrimidin-1-yl)ethyl)-8-chloro-2-phenylisoquinolin-1(2H)-one] | 80 to 100 | 80 to 100 | 0 to 10 | 20 to 40 | 181 to 185 | 45.6 | 47.3 |
| COc1ccc(-c2nn([C@H](C)c3cc4cccc(Cl)c4c(=O)n3-c3ccccc3)c3ncnc(N)c23)cc1NS(C)(=O)=O [Example 20b, (−)—N-(5-(4-amino-1-(1-(8-chloro-1-oxo-2-phenyl-1,2-dihydroisoquinolin-3-yl)ethyl)-1H-pyrazolo[3,4-d]pyrimidin-3-yl)-2-methoxyphenyl)methanesulfonamide] | 20 to 40 | 0 to 20 | 0 to 10 | 20 to 40 | 180 to 183 |  |  |
